These results are taken from patent US8258158B2 (Hoffmann-La Roche Inc., priority 2009, dated 2012).

The assay deals with T1, human HSL (Homo sapiens, UniProt Q05469).
T1 construct: overlapping PCR to generate a full length human HSL ORF with a 3′-His6 tag; His6 (C); made in house; host or cells: High 5 insect cells (baculovirus, pFast-BAC)
T1 sequence (Q05469 1-1076): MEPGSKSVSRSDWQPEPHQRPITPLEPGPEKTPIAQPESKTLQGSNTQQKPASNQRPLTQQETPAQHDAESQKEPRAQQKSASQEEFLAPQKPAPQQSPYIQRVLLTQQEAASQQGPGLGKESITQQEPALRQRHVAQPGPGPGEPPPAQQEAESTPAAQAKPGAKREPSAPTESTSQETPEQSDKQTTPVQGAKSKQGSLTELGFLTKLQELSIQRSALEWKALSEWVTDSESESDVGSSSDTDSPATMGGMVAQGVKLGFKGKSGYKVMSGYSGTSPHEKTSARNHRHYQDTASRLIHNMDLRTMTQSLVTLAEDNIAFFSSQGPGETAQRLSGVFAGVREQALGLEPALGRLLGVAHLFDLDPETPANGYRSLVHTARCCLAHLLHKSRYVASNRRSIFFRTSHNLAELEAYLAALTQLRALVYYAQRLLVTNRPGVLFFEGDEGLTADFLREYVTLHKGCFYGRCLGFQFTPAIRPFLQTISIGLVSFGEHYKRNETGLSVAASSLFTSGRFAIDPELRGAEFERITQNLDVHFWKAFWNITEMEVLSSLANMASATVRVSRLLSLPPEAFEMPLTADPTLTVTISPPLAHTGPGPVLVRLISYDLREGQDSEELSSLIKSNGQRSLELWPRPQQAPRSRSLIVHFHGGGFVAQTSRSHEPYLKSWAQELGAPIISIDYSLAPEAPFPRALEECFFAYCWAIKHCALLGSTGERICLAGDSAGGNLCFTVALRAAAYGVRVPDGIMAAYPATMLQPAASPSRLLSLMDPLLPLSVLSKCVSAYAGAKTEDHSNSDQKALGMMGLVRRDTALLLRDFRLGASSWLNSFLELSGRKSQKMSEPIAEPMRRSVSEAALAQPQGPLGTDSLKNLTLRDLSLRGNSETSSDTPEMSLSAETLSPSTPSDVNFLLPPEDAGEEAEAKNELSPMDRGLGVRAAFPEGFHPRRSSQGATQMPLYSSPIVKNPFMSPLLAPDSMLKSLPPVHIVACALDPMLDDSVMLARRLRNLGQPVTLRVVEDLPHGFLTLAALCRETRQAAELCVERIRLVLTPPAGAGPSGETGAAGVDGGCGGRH
Nature of the assay: Human hormone-sensitive lipase (HSL) enzyme inhibition assay (colorimetric, DMPT substrate). In kind it is biochemical. Conditions: human full length HSL-His6; 2,3-dimercapto-1-propanol tributyrate substrate; 37° C., 20 minutes; read-out: HSL hum IC50. The method in brief:
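Full-length human HSL with C-terminal His6, expressed in baculovirus/High 5 cells and Ni-NTA purified, was added from a 15 µg/ml solution to 1.5 mM DMPT in 100 mM MOPS pH 7.2, 0.2 mg/ml fatty acid-free BSA. After 20 min at 37 °C, DTNB with SDS/Triton X-100 was added, 15 min RT, and A405 read.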

The structures appear in SMILES notation.

One may read the IC50 as the midpoint of a concentration-inhibition curve. For the molecule `COc1ccc(S(=O)(=O)N2CCC(C(=O)Nc3ccc(OC(C)C)cc3)CC2)cc1` [Example 49, 1-(4-Methoxy-benzenesulfonyl)-piperidine-4-carboxylic acid (4-isopropoxy-phenyl)-amide], the half-maximal inhibitory concentration (IC50) is 90 nM.

Turning to `Cc1ccc(S(=O)(=O)N2CCC(CO)(C(=O)Nc3ccc(OC(F)(F)F)cc3)CC2)cc1` [Example 51], the half-inhibitory concentration (IC50) amounted to 330 nM.

As to `CC(C)(C)CCC(=O)N1CCC(C(=O)Nc2ccc(OC(F)(F)F)cc2)CC1` [Example 56, 1-(4,4-Dimethyl-pentanoyl)-piperidine-4-carboxylic acid (4-trifluoromethoxy-phenyl)-amide], the IC50 came out at 260 nM.

Turning to `CC1(C(=O)Nc2ccc(OC(F)(F)F)cc2)CCN(S(=O)(=O)c2ccccc2)CC1` [Example 57, 1-Benzenesulfonyl-4-methyl-piperidine-4-carboxylic acid (4-trifluoromethoxy-phenyl)-amide], the IC50 is 250 nM.

On to `CC1(C(=O)Nc2ccc(OC(F)(F)F)cc2)CCN(S(=O)(=O)c2ccccc2Cl)CC1` [Example 58, 1-(2-Chloro-benzenesulfonyl)-4-methyl-piperidine-4-carboxylic acid (4-trifluoromethoxy-phenyl)-amide], for which the IC50 worked out at 540 nM.

As for `COCC[C@@H](Oc1ccc(NC(=O)C2CCN(S(=O)(=O)c3ccc(C)cc3)CC2)cc1)C(F)(F)F` [Example 59, 1-(Toluene-4-sulfonyl)-piperidine-4-carboxylic acid [4-((R)-3-methoxy-1-trifluoromethyl-propoxy)-phenyl]-amide], the half-maximal inhibitory concentration (IC50) was found to be 290 nM.

In the case of `Cc1ccc(S(=O)(=O)N2CCC(C(=O)Nc3ccc(O[C@H](CCO)C(F)(F)F)cc3)CC2)cc1` [Example 60, 1-(Toluene-4-sulfonyl)-piperidine-4-carboxylic acid [4-((R)-3-hydroxy-1-trifluoromethyl-propoxy)-phenyl]-amide], the half-inhibitory concentration (IC50) turned out to be 70 nM.

As to `O=C(NCC1(c2ccc(Cl)cc2)CC1)C1CCN(S(=O)(=O)c2ccccc2Cl)CC1` [Example 61, 1-(2-Chloro-benzenesulfonyl)-piperidine-4-carboxylic acid [1-(4-chloro-phenyl)-cyclopropylmethyl]-amide], the 50% inhibitory concentration (IC50) is 640 nM.

For the molecule `O=C(NCC1(c2ccc(Cl)cc2)CC1)C1CCN(S(=O)(=O)c2ccccc2)CC1` [Example 62, 1-Benzenesulfonyl-piperidine-4-carboxylic acid [1-(4-chloro-phenyl)-cyclopropylmethyl]-amide], the half-inhibitory concentration (IC50) stood at 530 nM.

Take `Cn1cc(S(=O)(=O)N2CCC(F)(C(=O)Nc3ccc(OC(F)(F)F)cc3)CC2)c(C(F)(F)F)n1` [Example 63, 4-Fluoro-1-(1-methyl-3-trifluoromethyl-1H-pyrazole-4-sulfonyl)-piperidine-4-carboxylic acid (4-trifluoromethoxy-phenyl)-amide]: the half-maximal inhibitory concentration (IC50) worked out at 1090 nM.

`Cc1ccc(S(=O)(=O)N2CCC(C(=O)NCC3(c4ccc(Cl)cc4)CC3)CC2)cc1` [Example 64, 1-(Toluene-4-sulfonyl)-piperidine-4-carboxylic acid [1-(4-chloro-phenyl)-cyclopropylmethyl]-amide]: the IC50 stood at 1490 nM.
